Results as given in a melting point compilation (Tetko et al.; mined from patent text by program, amines drawn as free bases though some values may be those of a salt).

melting point	Compound
147 to 149 °C	CC(C)c1cccc(C(C)C)c1NC(=O)NCCN1CCN(CCSc2nc3ccccc3s2)CC1
140 to 141 °C	CC(C)(C)OC(=O)Nc1c(C#N)cnn1-c1ccc(Cl)c(Cl)c1Cl
231 to 232 °C	COC(=O)c1cc2c3c(Cl)cc(Cl)cc3n(C)c2s1
260 °C	Cc1[nH]c(=O)cc2c1CC(c1ccccn1)CC2 (stereo not drawn)
103 to 104 °C	CCCn1cc(C2CCC(=O)CC2)c2cc(C#N)ccc21
210 to 212 °C	Cc1c(N2C(=O)C=CC2=O)cccc1N1C(=O)C=CC1=O
187 to 189 °C	COc1cn(-c2ccc(C3CCOCC3)cc2F)nc(-c2ccnn2-c2ccccc2)c1=O
218 to 220 °C	O=c1cc(N2CCOCC2)oc2ccc(-c3ccccc3)cc12
157 to 158 °C	OC1CCN(C(c2ccccc2)(c2ccccc2)c2ccccc2)CC1
> 255 °C	O=c1[nH]c(C(F)(F)F)nc2ccc(I)cc12
63 to 64 °C	CCCN(CCC)CCCCCOc1ccc2oc(-c3ccc(OC)cc3)cc(=O)c2c1
201 to 203 °C	CCOC(=O)c1cc2c3n(ccc-2n1)CC(C)=N3
153 to 155 °C	CC(C)(NC(=O)OCc1ccccc1)C(=O)Nc1ccc([N+](=O)[O-])cc1C(=O)c1ccccc1F
238 to 240 °C	O=C(O)Cc1cccc2c1N=C(c1ccccc1)CC2=O
224 to 249 °C	Cc1cc(C(C)(C)C)cc(C)c1C1C(=O)CC(C)(C)CC1=O
225 to 227 °C	COc1cc(Oc2ccc(S(C)(=O)=O)nc2)cc2cc(C3=NCC(CC(N)=O)S3)[nH]c12 (stereo not drawn)
126 to 127 °C	O=C1CC(Sc2ccccc2)C(O)(c2ccccc2)C(Sc2ccccc2)C1 (stereo not drawn)
139 to 144 °C	C[C@@H]1S[C@@H](C(=O)Nc2ccc(CN3C(=O)CNC3=O)cc2)Cc2cc3c(cc2C1=O)OCO3
94 to 97 °C	CC(C)(C)OC(=O)N(CC(=O)O)Cc1ccccc1
247 to 248 °C	O=C1c2c(c(=O)n3nc(-c4ccccc4)cc3n2Cc2ccccc2)CCN1C1CCCCC1
192 to 194 °C	Cc1cc(NS(=O)(=O)c2ccc(S(C)(=O)=O)cc2)cc(C)c1S(=O)(=O)C[N+](=O)[O-]
72 °C	CC(C)(C)OC(=O)N1CCN(CCOc2cccc3c2c2cccc4c2n3C(c2ccccc2)CO4)CC1 (stereo not drawn)
179 °C	Cc1ccc2c(c1)c(=O)c1c(cnn1C)n2CCCNS(C)(=O)=O
144 °C	CC1(Cc2ccc3c(c2)OCCO3)CN(C(c2ccccc2)c2ccccc2)CCN1 (stereo not drawn)

melting point	Compound
102 to 104 °C	COc1ccc(OCC(=O)O)c(OC)c1OC
147 to 148 °C	COc1ccc(C=C(Br)Br)c(OC)c1
127 °C	CN(C)n1cn[nH]c1=O
77 to 79 °C	CCC1SCCCN1C(=S)Nc1cccc(Br)c1 (stereo not drawn)
145 to 146 °C	S=C=Nc1ccc(-c2nc(-c3ccccn3)no2)cc1
18 °C	c1ccc(COCCCCOCc2ccccc2)cc1
148 to 156 °C	CC(C)(C#N)Cc1ccc(-c2ccc(CC(C)(C)C#N)c(Cl)c2)cc1Cl
133 to 134 °C	Cc1nn(Cc2ccccc2)c2c1C(=O)CC(C)(C)C2
335 to 336 °C	CCOc1cc2c(cc1OC)Nc1[nH]cnc(=O)c1C2
188 to 190 °C	COC(=O)c1ccc(C)c(-n2c(C)cc(OCc3ccc(F)cc3CNC(=O)Nc3cc(C(C)(C)C)nn3-c3ccc(O)cc3)c(Cl)c2=O)c1
156 to 158 °C	O=C(O)CCC(=O)CC(=O)c1cccnc1
228 to 230 °C	COc1cc(OC)c2c(=O)[nH]c(-c3cc(C)c(OCCN4CCCC4)c(C)c3)nc2n1
191 to 195 °C	O=C(Nc1ccc2cc(CN3CCC(CO)CC3)cnc2c1)c1ccc(-c2ccc(F)cc2)cc1
101 to 105 °C	Nc1nc(N)c(-c2cc(Cl)cc(Cl)c2Cl)c(CO)n1
127 to 130 °C	N#CCc1cc(I)cc(Cc2nc3c(F)c(F)cc(F)c3s2)c1
216 °C	Cc1cc(C2=NN(C(=S)Cl)[C@H](C)Cc3cc4c(cc32)OCO4)cc(C)c1[N+](=O)[O-]
227 to 230 °C	CNC(=O)c1ccc(-c2ccc3nnn(Cc4ccc5ncccc5c4)c3n2)cc1Cl
144 to 145 °C	c1ccc(CN2CCC3(CC2)SC(c2ccccc2)c2ccccc23)cc1 (stereo not drawn)
56 to 57 °C	CCOC(=O)c1sc(Cl)nc1-c1ccccc1
212 °C	Cc1nccc2c1[nH]c1cc(OCc3ccccc3)ccc12
228 to 229 °C	Cc1ccc(-c2c(C)c(NC(=O)CC(C)(C)C)c(C)c3c2OCC3c2ccc(C(C)C)cc2)nc1 (stereo not drawn)
122 to 124 °C	CC1(C)CC(=C(c2ccc(O)cc2)c2ccc(OCCOCCO)cc2)CC(C)(C)C1
137 to 138 °C	COC(=O)Cc1ccc(C(O)(C#N)c2ccccc2)n1C (stereo not drawn)
188 °C	O=C1CCC(c2ccccc2)(c2ccccc2)C2CN(C(Cc3ccccc3)=NCCc3ccccc3)CC12 (stereo not drawn)

melting point	Compound
124 to 127 °C	O=C(NC/C=C\COc1cc(CN2CCCC2)ccn1)c1ccc[nH]1
36 to 37 °C	Cc1sc(-c2cccs2)cc1Br
178 to 180 °C	Cc1ccc(C)n1-c1ccc(OC(C)(C)C(=O)O)cc1
99 to 100 °C	COC(=O)c1cc(C(=O)N(C)CC(=O)N(C)C)c2cc(Cc3ccc(F)cc3)cnc2c1O
118 to 119 °C	CC(C)c1cccc(NC(=N)Nc2cccc(C(C)C)c2)c1
163 to 166 °C	Oc1cccc2c1c1cccc(Cl)c1n2Cc1ccccc1
57 to 61 °C	CCOC(=O)c1cnc(O)nc1Cc1ccccc1
104 to 108 °C	CNC(=O)[C@H](Cc1ccc(OC)cc1)NC(=O)[C@H](CC(C)C)N[C@H](CCC(=O)NCc1ccccc1)C(=O)O
93 to 95 °C	Cc1ccc(S(=O)(=O)N[C@@H]2CCCC[C@H]2N)cc1 (relative stereo)
166 to 167 °C	CCS(=O)(=O)c1nnc(NN)s1
147 to 148 °C	CC(OP(=O)(c1ccccc1)c1ccccc1)c1ccccc1C(C)OP(=O)(c1ccccc1)c1ccccc1 (stereo not drawn)
171 to 173 °C	CCOC(=O)Cc1c(C#N)cnc2c(NC(=O)c3c(Cl)cccc3Cl)cccc12
131 to 132 °C	CCC[C@H](NC(=O)/C=C/S(=O)(=O)c1ccccc1)C(=S)OC
193 to 194 °C	CN1C[C@H]2c3ccccc3[C@H](c3ccccc3)CN2C(=O)C1=O (relative stereo)
128 °C	COC(=O)Nc1ccc2ccccc2c1-c1c(P(=O)(c2ccccc2)c2ccccc2)ccc2ccccc12
160 to 164 °C	C#CCN=C(NC#N)SC
90.6 to 91.4 °C	CCCCc1ccc(NC(=O)NOCc2ccccc2)cc1
97 to 99 °C	ClCc1nc(NCc2ccccn2)c2c(-c3ccccc3)csc2n1
177 to 179 °C	CC(C)(C)c1cc(O)cc(C(C)(C)C)c1C=C1SC(NCO)=NC1=O
68 to 70 °C	COC(=O)N1CCCc2onc(OC)c2C1
224 to 225 °C	O=C1c2ccccc2C(=O)N1CC(=O)N1c2ccccc2N(Cc2ccc([N+](=O)[O-])cc2)C(=O)[C@H]2CCC[C@H]21 (relative stereo)
243 to 244 °C	COc1ccccc1Nc1nc(N)nc2c(OC)cccc12
121 to 122 °C	O=C(Cn1ccnc1)c1ccccc1
125 to 139 °C	CC(Oc1ccc2nc(NC(=O)NCCN3CCN(Cc4ccccc4)CC3)sc2c1)c1c(Cl)ccc(F)c1Cl (stereo not drawn)

melting point	Compound
105 °C	Cc1c(CC(=O)NCCCO)cc(-c2ccc(S(C)(=O)=O)cc2)n1-c1ccc(F)cc1
73 to 74 °C	OC(CCN1CCN(c2ccccc2)CC1)COc1cccc(C(F)(F)F)c1 (stereo not drawn)
78 to 79 °C	CC(C)C(=O)[C@H]1CCn2c(cc3ccccc32)C1
166 to 169 °C	COC(=O)c1cc(C(=O)OC)cc(-c2ccc(C=O)cc2)c1
140 °C	O=C(NCc1ccccc1-c1ccccc1C(=O)NCCc1ccccn1)OCc1ccccc1
118 °C	COC(=O)c1ccc(Cc2cc3cc(Cl)ccc3[nH]2)cc1
197 to 199 °C	N#Cc1ccc(N(Cc2ccc(OS(N)(=O)=O)cc2)n2cnnc2)cc1-c1ccc(F)cc1
181 to 183 °C	C[C@@H](n1ncn(-c2ccc(-n3ccn(-c4ccc(OCC(F)(F)C(F)F)cc4)c3=O)cc2)c1=O)[C@](O)(Cn1cncn1)c1ccc(F)cc1F
105 to 107 °C	Cc1ccsc1C(=O)Cc1ccc(Cl)cc1[N+](=O)[O-]
145 to 147 °C	CC(=O)N1CCN=C1Nc1cc(C)nn1C(C)C
83 °C	C=C(C)C(=O)OCCCCCCOc1ccc(C(=O)O)cc1
175 to 177 °C	Cc1ccc(NC(=O)c2ccc(CN3CCCCC3)c(C(F)(F)F)c2)cc1-c1ccc2cnncc2c1
293 to 300 °C	Nc1ncc2c(n1)-c1sc(N)nc1CC2
160 to 161 °C	Cc1ccc(SCCC(=O)c2cc(O)c(O)c([N+](=O)[O-])c2)cc1
230 to 233 °C	COc1nc(N)nc(-c2ccccc2)c1-c1ccc(=O)n(C(C)C)n1
208 °C	C=Cc1ccc(CP(=O)(C(=O)c2c(C)cc(C)cc2C)C(=O)c2c(C)cc(C)cc2C)cc1
281 °C	O=c1nc(-c2cccc(Cl)c2)c2cc(Br)ccc2[nH]1
149 to 150 °C	O=c1ccn(-c2cccc(Oc3nc4ccccc4[nH]3)c2)nc1-c1ccnn1-c1ccccc1
166 to 167 °C	FC(F)(F)Oc1cccc(COc2cccc(-c3nnc(Nc4ccc(Cl)c(Cl)c4)s3)c2)c1
118 °C	CCOC(=O)Nc1cccc(N2CCN(CCC3CCN(CC(C)=O)CC3)CC2)c1
190 to 192 °C	CSc1cc(CO)cc(S(N)(=O)=O)c1Cc1ccccc1
86 to 87 °C	CCCCCOC1=C(c2ccccc2)C(CCC(=O)O)OC1=O (stereo not drawn)

Compound	melting point
NC(=O)NC1CCN2CCc3ccccc3C2C1 (stereo not drawn)	235 °C
Cc1cc(C)c(C(=O)P2(=O)Oc3ccccc3-c3ccccc32)c(C)c1 (stereo not drawn)	109 °C
Clc1n[nH]c2cccc(NC3=NCCN3)c12	245 to 250 °C
CCC1N=C(c2ccccc2Cl)c2cc(CC(=O)OC)sc2NC1=O (stereo not drawn)	202 to 204 °C
